{"source": "patent US7601739B2", "about": "“Compounds having antiestrogenic and tissue selective estrogenic properties, and compounds with anti-androgenic properties for treatment of prostate cancer and androgen receptor dependent diseases” (Virgina Commonwealth University, priority 2006, dated 2009)", "target": "T1, hERα (Homo sapiens, UniProt P03372)", "T1 construct": "the full length hERα was inserted into pGAD-GAL4 and pGBD-GAL4 vectors; expressed in transfected cells; host or cells: S. cerevisiae Y190 transformed with pGBT-hER (pGBKT7) and pGAD-hER (pGADT7)", "T1 sequence (P03372 1-595) 1": "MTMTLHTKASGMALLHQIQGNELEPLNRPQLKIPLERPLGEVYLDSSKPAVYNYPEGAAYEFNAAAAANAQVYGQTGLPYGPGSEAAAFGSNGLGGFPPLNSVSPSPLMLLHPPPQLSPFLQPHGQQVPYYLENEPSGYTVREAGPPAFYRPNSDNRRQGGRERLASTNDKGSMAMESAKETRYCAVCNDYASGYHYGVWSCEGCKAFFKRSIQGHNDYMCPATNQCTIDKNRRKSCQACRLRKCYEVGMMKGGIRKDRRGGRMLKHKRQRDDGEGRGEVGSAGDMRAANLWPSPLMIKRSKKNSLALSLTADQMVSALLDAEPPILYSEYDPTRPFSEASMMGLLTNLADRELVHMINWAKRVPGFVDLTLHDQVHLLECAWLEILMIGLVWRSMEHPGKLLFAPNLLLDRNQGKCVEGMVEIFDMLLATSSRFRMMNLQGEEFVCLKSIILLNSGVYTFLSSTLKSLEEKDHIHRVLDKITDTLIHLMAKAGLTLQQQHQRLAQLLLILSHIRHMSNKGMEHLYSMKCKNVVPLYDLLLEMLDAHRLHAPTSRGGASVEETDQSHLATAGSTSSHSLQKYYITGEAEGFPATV", "T1 sequence (P03372 1-595) 2": "T1 sequence (P03372 1-595) 1", "assay": "Yeast two-hybrid and filter lift assay of hERα dimerization", "assay_type": "cell-based", "method": "The transformed yeasts with yeast two-hybrid vectors were cultured in synthetic medium lacking trytophan, and leucine. […] After that, the membranes were soaked in 0.4 ml Z-buffer/Xgal (60 mM Na2HPO4, 40 mM NaH2PO410 mM KCl, 1 mM MgSO4, 0.1% SDS, 50 mM -mercaptoethanol, 20 mM Xgal). The pictures of the results were taken within 2 and 3 hours after the -galactosidase assay was processed.\nDimerization of estrogen receptor plays an essential role in regulating estrogen receptor's functions including DNA binding, transactivation, and coactivator recruitment. In this study, yeast two hybrid and filter lift assays were used to determine the ability of compounds 2 and 6 to interrupt the dimerization of hERα. For setting up yeast two hybrid assay, the full length hERα was inserted into pGAD-GAL4 and pGBD-GAL4 vectors. In pGBD-GAL4, hERα was fused to the GAL4 DNA binding domain through its N terminus. In pGAD-GA14, hERα was fused to the GAL4 activation domain through its N terminus. When the dimerization of hERα occurs mainly through its C terminus, the GAL4 DNA binding domain binds to the repeated GAL4 response element located in front of the β-gal reporter gene and the whole complex, GAL4-BD/hERα/hERα/GAL4-AD, turns on the synthesis of the product of β-gal reporter gene. […] Filter lift assay in which X-gal was used, was employed to qualitatively determine the activity of β-galactosidase.", "note": "“Also recorded” adds a separate entry of the source.", "data": [{"smiles": "CCCCNC(=O)CCCCCCCCCCOCC1Cc2ccccc2CN1C(=O)c1cccc(O)c1", "note": "(stereo not drawn) [Compound 6]", "values": [{"measurement": "inhibitory activity against hERα dimerization in combination with estrogen", "setting": "combined with estrogen", "result": "inhibitory activity is higher than tamoxifen's; also recorded: obvious inhibitory activity"}, {"measurement": "blue color change of yeast colony in combination with estrogen", "setting": "estrogen's colony as reference, more blue = less inhibition", "result": "slight blue color change"}, {"measurement": "induction of hERα dimerization, compound alone", "setting": "tested alone", "result": "did not induce hERα dimerization; also recorded: do not promote the dimerization of hERα"}]}]}
